Source: patent US20070134709A1, “Usages of MTHFR gene polymorphisms in predicting homocysteine level, disease risk, and treatment effects and related methods and kit” (priority 2005, published 2007)

How the values were obtained:
[1] = molecular target: angiotensin converting enzyme I (Homo sapiens, UniProt P12821); conditions: cited from earlier work
[2] = test system: subjects; assay: Liver injury as change in liver enzymes (ALT, AST) after 57 days' treatment, subjects grouped by MTHFR C677T genotype; type: in vivo, human; conditions: for Significant change in ALT (number of subjects): (ALT day 57-ALT day 0)/ALT day 0>15%
Experimental: In our clinical epidemiology study, we classified subjects into 677CC, 677CT, and 677TT groups based on the MTHFR C677T genotype. Each subject was treated with ENAZEPRIL alone or combined with folate for 57 consecutive days. Pre-treatment and post-treatment liver enzymes (ALT and AST) were measured. The MTHFR C677T polymorphism can affect the degree of liver injury induced by ACEI medicine combined with folate. […] Remarkably, given the combination therapy, Subjects with MTHFR 677CC genotype tend to have greater increase in ALT and AST, but subjects with MTHFR 677TT genotype tend to have less increase in ALT and AST. Subjects with MTHFR 677CT genotype fell in-between.
In our clinical epidemiology study, we classified subjects into 677CC, 677CT, and 677TT groups based on the MTHFR C677T genotype. Each subject was treated with ENAZEPRIL alone or combined with folate for 57 consecutive days. Pre-treatment and post-treatment liver enzymes (ALT and AST) were measured.

[3] = test system: hypertensive patients; assay: Change in plasma Hcy level after 57 days' treatment, hypertensive patients grouped by MTHFR A1298C genotype; type: in vivo, human; conditions: for β(SE) of change in Hcy level: adjusted for sex, age, BMI, smoking, drinking, baseline Hcy; for Mean change in Hcy level: plasma, Day 57 − Day 0
Experimental: In our clinical epidemiology study, we classified hypertensive patients into 1298AA, 1298AC, and 1298CC groups based on the genotype of MTHFR A1298C polymorphism. Each subject was treated with ACEI medicine alone or combined with folate for 57 consecutive days. Pre-treatment and post-treatment plasma Hcy level, blood pressure (SBP/DBP), and urine albumin were measured.

[4] = test system: hypertensive subjects; assay: Change in plasma Hcy level after 57 days' treatment, hypertensive subjects grouped by MTHFR C677T genotype; type: in vivo, human; conditions: for Significant change in Hcy (number of subjects): (day 57 − day 0)/day 0 ≧10%; for Non-significant change in Hcy (number of subjects): relative change below 10; for β(SE) of change in Hcy level: multiple linear regression adjusted for sex, age, BMI, smoking, drinking, baseline Hcy; for Mean change in Hcy level: plasma, Day 57 − Day 0
Experimental: We conducted a clinical epidemiology study, in which we classified hypertensive subjects into 677CC, 677CT, and 677TT groups based on the genotypes of MTHFR C677T polymorphism. Each subject was treated with Enalapril alone or combined with folate for 57 consecutive days. Pre-treatment and post-treatment plasma Hcy level, blood pressure (SBP/DBP), and urine albumin were measured. The major findings are summarized as follow. […]

[5] = cited from earlier work
[6] = test system: hypertensive patients; conditions: oral, single daily fixed dosage of 10 mg; 444 hypertensive patients; cited from earlier work
[7] = Table 19, 677CC, day 57 minus day 0
[8] = Table 19, 677CT, day 57 minus day 0
[9] = Table 19, 677TT, day 57 minus day 0

angiotensin converting enzyme I, sequence (P12821 30-1306): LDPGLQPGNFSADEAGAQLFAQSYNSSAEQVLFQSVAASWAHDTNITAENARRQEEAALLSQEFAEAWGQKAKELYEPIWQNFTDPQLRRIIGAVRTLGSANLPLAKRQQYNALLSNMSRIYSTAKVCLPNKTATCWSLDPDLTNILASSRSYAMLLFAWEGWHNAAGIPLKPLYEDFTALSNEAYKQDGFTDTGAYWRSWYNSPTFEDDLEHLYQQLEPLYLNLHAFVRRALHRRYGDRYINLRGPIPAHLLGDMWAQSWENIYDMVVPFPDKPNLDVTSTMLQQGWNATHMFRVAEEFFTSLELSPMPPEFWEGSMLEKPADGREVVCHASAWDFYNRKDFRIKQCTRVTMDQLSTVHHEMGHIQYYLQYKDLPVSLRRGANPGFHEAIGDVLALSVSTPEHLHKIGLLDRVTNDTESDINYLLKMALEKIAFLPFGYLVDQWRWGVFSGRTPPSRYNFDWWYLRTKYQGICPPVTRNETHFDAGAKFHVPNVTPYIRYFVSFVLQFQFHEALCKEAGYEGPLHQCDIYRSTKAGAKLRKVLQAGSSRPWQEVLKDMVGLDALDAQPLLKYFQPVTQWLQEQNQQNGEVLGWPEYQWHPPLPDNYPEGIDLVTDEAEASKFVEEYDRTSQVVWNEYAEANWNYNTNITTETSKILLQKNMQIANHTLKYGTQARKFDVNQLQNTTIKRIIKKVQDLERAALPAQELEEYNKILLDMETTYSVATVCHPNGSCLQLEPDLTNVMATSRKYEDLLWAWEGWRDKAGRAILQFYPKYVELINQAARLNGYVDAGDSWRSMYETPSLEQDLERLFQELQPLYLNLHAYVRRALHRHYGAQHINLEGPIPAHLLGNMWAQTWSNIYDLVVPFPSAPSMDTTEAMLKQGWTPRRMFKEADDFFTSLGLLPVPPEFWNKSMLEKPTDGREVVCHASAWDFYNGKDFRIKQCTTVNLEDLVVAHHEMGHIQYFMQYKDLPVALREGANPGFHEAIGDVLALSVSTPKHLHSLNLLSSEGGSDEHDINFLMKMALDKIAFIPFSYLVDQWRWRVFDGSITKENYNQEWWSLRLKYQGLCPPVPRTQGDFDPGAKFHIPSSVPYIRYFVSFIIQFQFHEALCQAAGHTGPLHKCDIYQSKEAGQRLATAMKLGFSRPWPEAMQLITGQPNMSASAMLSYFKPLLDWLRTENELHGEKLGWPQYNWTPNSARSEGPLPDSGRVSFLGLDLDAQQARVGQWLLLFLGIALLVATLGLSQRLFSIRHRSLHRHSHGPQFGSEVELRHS

## C[C@H](N[C@@H](CCc1ccccc1)C(=O)O)C(=O)N1CCC[C@H]1C(=O)O [Enalaprilat]
[1]
  Inhibition of angiotensin converting enzyme I compared with enalapril: powerful effect on inhibiting angiotensin converting enzyme I than enalapril

## CCOC(=O)[C@H](CCc1ccccc1)N[C@@H](C)C(=O)N1CCC[C@H]1C(=O)O [ENAZEPRIL]
[2]; 677CC
  Insignificant change in ALT (number of subjects): 20
  Significant change in ALT (number of subjects): 32
[2]; 677TT
  Insignificant change in ALT (number of subjects): 34
  Significant change in ALT (number of subjects): 14
[2]; [7]
  Mean change in ALT: 13.8 U/L
  Mean change in AST: 7.1 U/L
[2]; [8]
  Mean change in ALT: 10.1 U/L
  Mean change in AST: 5.2 U/L
[2]; [9]
  Mean change in ALT: 7.3 U/L
  Mean change in AST: 0.3 U/L
[2]; Table 20, 677CC, Day57 − Day0
  Mean change in ALT: 17.92 U/L
  Mean change in AST: 4.95 U/L
[2]; Table 20, 677CT, Day57 − Day0
  Mean change in ALT: 10.15 U/L
  Mean change in AST: 5.81 U/L
[2]; Table 20, 677TT, Day57 − Day0
  Mean change in ALT: 9.4 U/L
  Mean change in AST: 0.08 U/L
[2]; Total (CC and TT)
  Insignificant change in ALT (number of subjects): 54
  Significant change in ALT (number of subjects): 46
[2]; subjects with MTHFR 677CC genotype, Enazepril alone
  Increase in ALT and AST: greatest increase in ALT and AST
[3]; 1298AA vs 1298CC
  β(SE) of change in Hcy level: 2.3 (1.8)
[3]; 1298AC vs 1298CC
  β(SE) of change in Hcy level: 0.2 (1.5)
[3]; ENAZEPRIL alone for 57 days
  Plasma Hcy level after treatment: significantly increased level of plasma Hcy
[3]; MTHFR 1298AA
  Mean change in Hcy level: 3.0 µmol/L
[3]; MTHFR 1298AC
  Mean change in Hcy level: 1.2 µmol/L
[3]; MTHFR 1298CC
  Mean change in Hcy level: 1.1 µmol/L

## CCOC(=O)[C@H](CCc1ccccc1)N[C@@H](C)C(=O)N1CCC[C@H]1C(=O)O [ENALAPRIL, Enalapril]
[4]; 677CC + CT
  Significant change in Hcy (number of subjects): 12
  Non-significant change in Hcy (number of subjects): 39
[4]; 677CT or CC
  Subjects with significant change in Hcy level: 23.3%
[4]; 677CT vs 677CC
  β(SE) of change in Hcy level: 0.7 (1.3)
[4]; 677TT genotype
  Subjects with significant change in Hcy level: 38.5%
[4]; 677TT vs 677CC
  β(SE) of change in Hcy level: 3.9 (1.3)
[4]; 677TT
  Significant change in Hcy (number of subjects): 10
  Non-significant change in Hcy (number of subjects): 16
[4]; Enalapril alone for 57 days
  Plasma Hcy level after treatment: increased level of plasma Hcy
[4]; MTHFR 677CC
  Mean change in Hcy level: -0.5 µmol/L
[4]; MTHFR 677CT
  Mean change in Hcy level: 1.2 µmol/L
[4]; MTHFR 677TT
  Mean change in Hcy level: 2.7 µmol/L
[4]; Total, all genotypes
  Significant change in Hcy (number of subjects): 22
  Non-significant change in Hcy (number of subjects): 55
[4]; overall (22/77)
  Subjects with significant change in Hcy level: 28.6%
[5]; in vivo
  Half-time: 11 h
[5]; regular dosage
  Duration of blood pressure lowering effect: more than 24 hours

## CCOC(=O)[C@H](CCc1ccccc1)N[C@H]1CCc2ccccc2N(CC(=O)O)C1=O [Benazepril]
[6]
  Change in diastolic blood pressure, TT genotype vs CT or CC genotype: significantly higher
